Results: patent publication US12157746B2, “Tetrahydro-1H-pyrazino[2,1-a]isoindolylquinoline compounds for the treatment of autoimmune disease” (F. HOFFMANN-LA ROCHE AG, priority 2018, dated 2024)

How the values were obtained:
[1] = target: T1, human TLR8 (Homo sapiens, UniProt Q9NR97); experiment: HEK293-Blue-hTLR-8 cells assay; type: cell-based; conditions: HEK293-Blue-hTLR8 cells, R848 stimulation, 20 hrs, SEAP reporter; read-out: HEK/hTLR8 IC50
T1 sequence (Q9NR97 27-1041): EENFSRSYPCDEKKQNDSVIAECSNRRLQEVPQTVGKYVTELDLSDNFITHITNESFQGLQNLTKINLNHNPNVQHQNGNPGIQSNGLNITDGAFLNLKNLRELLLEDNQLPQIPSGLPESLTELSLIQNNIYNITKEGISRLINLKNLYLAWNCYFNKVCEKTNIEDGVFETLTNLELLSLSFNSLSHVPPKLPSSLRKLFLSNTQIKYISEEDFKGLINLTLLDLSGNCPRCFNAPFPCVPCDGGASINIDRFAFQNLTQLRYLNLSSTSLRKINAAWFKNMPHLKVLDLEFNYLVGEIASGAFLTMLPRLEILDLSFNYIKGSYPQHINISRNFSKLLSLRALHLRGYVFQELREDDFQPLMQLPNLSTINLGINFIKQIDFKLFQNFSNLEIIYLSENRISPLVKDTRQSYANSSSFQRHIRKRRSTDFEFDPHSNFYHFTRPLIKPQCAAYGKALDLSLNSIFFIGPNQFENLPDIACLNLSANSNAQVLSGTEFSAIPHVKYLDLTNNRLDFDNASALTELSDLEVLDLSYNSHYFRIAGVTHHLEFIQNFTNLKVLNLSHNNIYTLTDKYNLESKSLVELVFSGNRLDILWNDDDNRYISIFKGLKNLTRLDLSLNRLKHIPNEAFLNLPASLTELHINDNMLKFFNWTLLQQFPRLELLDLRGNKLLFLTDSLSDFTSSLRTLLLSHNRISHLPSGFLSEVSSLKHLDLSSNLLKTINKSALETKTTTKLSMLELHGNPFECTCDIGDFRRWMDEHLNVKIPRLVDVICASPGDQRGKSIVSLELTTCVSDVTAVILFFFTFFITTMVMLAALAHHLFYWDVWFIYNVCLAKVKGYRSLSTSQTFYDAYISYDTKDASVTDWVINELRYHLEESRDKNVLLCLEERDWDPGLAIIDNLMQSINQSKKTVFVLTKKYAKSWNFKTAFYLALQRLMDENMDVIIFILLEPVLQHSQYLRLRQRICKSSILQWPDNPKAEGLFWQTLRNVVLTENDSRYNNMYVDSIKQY
How it was run: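 Antagonism read out in HEK293-Blue-hTLR8 cells carrying an NF-κB/AP-1-driven SEAP reporter, stimulated with R848 (10 μL of 60 uM stock added) alongside serially diluted compound (1% DMSO), 20 h at 37° C. Supernatant SEAP measured with QUANTI-Blue after 2 h at 37° C, absorbance at 620-655 nm.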

[2] = Human microsomal stability assay; type: in vitro ADME; conditions: human liver microsomes 0.5 mg/mL, 37° C., pH 7.4, NADPH regenerating system, 0-30 minutes
How it was run: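 Human liver microsomes (0.5 mg/mL) with […] compound in 100 mM potassium phosphate, pH 7.4, 37° C; reaction started with NADPH regenerating system after 10 min preincubation. Parent remaining at 0–30 min quantified by LC-MS/MS; clearance binned low (<7.0), medium (7.0-16.2) or high (16.2-23.2) mL/min/kg.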

IC50 [1] [nM] | CL (h) [2] [mL/min/kg] | Structure (SMILES)
< 3.2 | 6.2 | C[C@@H]1CN(c2ccc(C#N)c3ncccc23)C[C@@H]2c3ccc(N[C@@H]4CCCNC4)cc3CN12 [Example 65, 5-[(4R,10bS)-4-methyl-8-[[(3R)-3-piperidyl]amino]-3,4,6,10b-tetrahydro-1H-pyrazino[2,1-a]isoindol-2-yl]quinoline-8-carbonitrile]
< 3.2 | 8.4 | C[C@@H]1CN(c2ccc(C#N)c3ncccc23)C[C@@H]2c3ccc(NCC4(F)CNC4)cc3CN12 [Example 69, 5-[(4R,10bS)-8-[(3-fluoroazetidin-3-yl)methylamino]-4-methyl-3,4,6,10b-tetrahydro-1H-pyrazino[2,1-a]isoindol-2-yl]quinoline-8-carbonitrile]
< 3.2 | 7.4 | CO[C@@H]1CNC[C@@H]1Nc1ccc2c(c1)CN1[C@H](C)CN(c3ccc(C#N)c4ncccc34)C[C@H]21 [Example 60, 5-[(4R,10bS)-8-[[(3S,4R)-4-methoxypyrrolidin-3-yl]amino]-4-methyl-3,4,6,10b-tetrahydro-1H-pyrazino[2,1-a]isoindol-2-yl]quinoline-8-carbonitrile]
< 3.2 | 6.8 | C[C@@H]1CN(c2ccc(C#N)c3ncccc23)C[C@@H]2c3ccc(N4CCNCC4)cc3CN12 [Example 1, 5-[(4R,10bS)-4-methyl-8-piperazin-1-yl-3,4,6,10b-tetrahydro-1H-pyrazino[2,1-a]isoindol-2-yl]quinoline-8-carbonitrile]
9.2 | 7.8 | C[C@@H]1CN(c2ccc(C#N)c3ncccc23)C[C@@H]2c3cc(F)c(N4CC5CNCC(C4)O5)cc3CN12 [Example 85, 5-[(4R,10bS)-9-fluoro-4-methyl-8-(9-oxa-3,7-diazabicyclo[3.3.1]nonan-3-yl)-3,4,6,10b-tetrahydro-1H-pyrazino[2,1-a]isoindol-2-yl]quinoline-8-carbonitrile]
< 3.2 | 7.3 | CO[C@H]1CNC[C@H]1Nc1ccc2c(c1)CN1[C@H](C)CN(c3ccc(C#N)c4ncccc34)C[C@H]21 [Example 61, 5-[(4R,10bS)-8-[[(3R,4S)-4-methoxypyrrolidin-3-yl]amino]-4-methyl-3,4,6,10b-tetrahydro-1H-pyrazino[2,1-a]isoindol-2-yl]quinoline-8-carbonitrile]
2.8 | 6.2 | C[C@@H]1CN(c2ccc(Cl)c3ncccc23)C[C@@H]2c3ccc(N[C@H]4CNC[C@H]4F)cc3CN12 [Example 79, (4R,10b)-2-(8-chloro-5-quinolyl)-N-[(3S,4R)-4-fluoropyrrolidin-3-yl]-4-methyl-3,4,6,10b-tetrahydro-1H-pyrazino[2,1-a]isoindol-8-amine]
0.7 | 6.2 | C[C@@H]1CN(c2ccc(C#N)c3ncccc23)C[C@@H]2c3ccc(C(=O)N4CCC(C)(N)CC4)cc3CN12 [Example 88, 5-[(4R,10bS)-8-(4-amino-4-methyl-piperidine-1-carbonyl)-4-methyl-3,4,6,10b-tetrahydro-1H-pyrazino[2,1-a]isoindol-2-yl]quinoline-8-carbonitrile]
< 3.2 | 6.8 | C[C@H]1CN(c2ccc(C#N)c3ncccc23)C[C@H]2c3ccc(N4CCNCC4)cc3CN12 [Example 2, 5-[(4S,10bR)-4-methyl-8-piperazin-1-yl-3,4,6,10b-tetrahydro-1H-pyrazino[2,1-a]isoindol-2-yl]quinoline-8-carbonitrile]
< 3.2 | 7.9 | C[C@@H]1CN(c2ccc(C#N)c3ncccc23)C[C@@H]2c3ccc(NCCN4CC[C@H](O)C4)cc3CN12 [Example 68, 5-[(4R,10bS)-8-[2-[(3S)-3-hydroxypyrrolidin-1-yl]ethylamino]-4-methyl-3,4,6,10b-tetrahydro-1H-pyrazino[2,1-a]isoindol-2-yl]quinoline-8-carbonitrile]
< 3.2 | 6.2 | N#Cc1ccc(N2CCN3Cc4cc(N5CCNCC5)ccc4C3C2)c2cccnc12 (stereo not drawn) [Example 3, 5-(8-piperazin-1-yl-3,4,6,10b-tetrahydro-1H-pyrazino[2,1-a]isoindol-2-yl)quinoline-8-carbonitrile]
12.4 | 6.2 | Cc1ccc(N2C[C@@H](C)N3Cc4cc(N[C@H]5CNC[C@H]5F)ccc4[C@H]3C2)c2cccnc12 [Example 75, (4R,10bS)—N-[(3S,4R)-4-fluoropyrrolidin-3-yl]-4-methyl-2-(8-methyl-5-quinolyl)-3,4,6,10b-tetrahydro-1H-pyrazino[2,1-a]isoindol-8-amine]
